According to article PMC10278977, “Caenorhabditis elegans NMAD-1 functions as a demethylase for actin” (Journal of Molecular Cell Biology, 2023):

Columns and labels:
[1] = target: T1, NMAD-1 (WT, full-length) (Caenorhabditis elegans, UniProt Q8MNT9); test: isothermal titration calorimetry; assay type: binding
T1 construct: recombinant full-length protein
T1 sequence (Q8MNT9 1-291): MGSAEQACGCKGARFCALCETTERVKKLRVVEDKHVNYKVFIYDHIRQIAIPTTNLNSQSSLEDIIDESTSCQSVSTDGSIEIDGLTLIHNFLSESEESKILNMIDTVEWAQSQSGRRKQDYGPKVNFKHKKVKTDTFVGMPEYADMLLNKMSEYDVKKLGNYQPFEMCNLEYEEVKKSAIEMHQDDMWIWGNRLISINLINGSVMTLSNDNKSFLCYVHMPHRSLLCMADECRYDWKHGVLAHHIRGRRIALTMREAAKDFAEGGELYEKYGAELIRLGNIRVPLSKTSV
Text: isothermal titration calorimetry on NMAD-1 (WT, full-length) | the cofactor analog N-oxalylglycine (NOG) with dissociation constants (KD) of […]

[2] = target: T2, NMAD-1_32–291 (NMAD-1 truncation Δ1–31) (Caenorhabditis elegans, UniProt Q8MNT9); test: binding affinity measurement, method not given
T2 construct: residues 32-291, N-terminal flexible region removed
T2 sequence (Q8MNT9 32-291): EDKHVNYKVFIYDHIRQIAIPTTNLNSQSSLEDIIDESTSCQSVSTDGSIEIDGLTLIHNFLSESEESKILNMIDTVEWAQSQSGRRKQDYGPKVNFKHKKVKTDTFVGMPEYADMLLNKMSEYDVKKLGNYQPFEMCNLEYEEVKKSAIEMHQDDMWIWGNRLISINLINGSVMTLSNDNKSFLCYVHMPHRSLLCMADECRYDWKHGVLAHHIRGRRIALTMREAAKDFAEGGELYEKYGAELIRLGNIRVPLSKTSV
Text: binding affinity measurement, method not told in main text on NMAD-1_32–291 (NMAD-1 truncation Δ1–31) | NOG as the full-length NMAD-1 (Supplementary Figure S3C)

[3] = target: T3, CTD-deleted NMAD-1 (ΔCTD, residues 1–259) (Caenorhabditis elegans, UniProt Q8MNT9); test: binding affinity measurement, method not given
T3 construct: residues 1-259, C-terminal domain deleted
T3 sequence (Q8MNT9 1-259): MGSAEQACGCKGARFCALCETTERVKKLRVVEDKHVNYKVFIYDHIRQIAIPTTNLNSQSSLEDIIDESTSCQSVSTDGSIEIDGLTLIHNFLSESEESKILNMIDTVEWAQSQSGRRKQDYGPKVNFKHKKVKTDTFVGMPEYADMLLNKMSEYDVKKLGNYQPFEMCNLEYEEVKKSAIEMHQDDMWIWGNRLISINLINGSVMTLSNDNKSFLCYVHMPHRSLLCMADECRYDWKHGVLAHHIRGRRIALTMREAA
Text: binding affinity measurement, method not told in main text on CTD-deleted NMAD-1 (ΔCTD, residues 1–259) | the CTD-deleted NMAD-1 retained the NOG binding affinity

O=C(O)CNC(=O)C(=O)O [N-oxalylglycine]
Kd [1]: 1070 ± 110 nM
Kd [2]: 1250 ± 100 nM
Kd [3]: 1680 ± 10 nM
